Ten compounds from ChEMBL document CHEMBL1201862, “PubChem BioAssay data set” (2004) can be followed below.

SMILES strings stand for the structures.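 A five-concentration, 48-hour dose response in 96-well plates underlies each endpoint, interpolated linearly between surrounding concentrations. GI50 = concentration required for 50% inhibition of growth.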 The source made the active and inactive calls. No stated cut-off is given here; in the data, active = GI50 up to about 1.1 µM and inactive = higher.

Some test systems named below: SF-539; UACC-257; CCRF-CEM; UACC-62; SN12C; HOP-62; HOP-92; MDA-N; SK-MEL-28; COLO 205; OVCAR-5; PC-3; A498; RPMI-8226; SNB-75; M14; MOLT-4; HT-29; Malme-3M; NCI-H460.
Common to all, as to test: NCI-60 cell line screen, 48 h

On to `COC(=O)/C=C1/OC(c2ccccc2)=CC1=O`, for which the GI50 in the test on SF-539 was 20.3 µM (inactive); in the test on UACC-257 it was 24.7 µM (inactive); in the test on CCRF-CEM, 6.65 µM (inactive); in the test on UACC-62 it was 18.6 µM (inactive); in the test with SN12C, 19 µM (inactive); in the test with HOP-62 it was 21.6 µM (inactive). The GI50 was 22.9 µM (inactive) in the test with HOP-92; 17.3 µM (inactive) in the test with MDA-N; 19.9 µM (inactive) in the test on SK-MEL-28; 15.9 µM (inactive) with COLO 205; 18.6 µM (inactive) with OVCAR-5; 20.4 µM (inactive) with PC-3. The GI50 with A498 is 13.7 µM (inactive); in the test on RPMI-8226, 6.25 µM (inactive); with SNB-75 it was 15.5 µM (inactive); in the test with M14, 23.3 µM (inactive); in the test with MOLT-4, 6.38 µM (inactive); in the test with HT-29, 18.5 µM (inactive). The GI50 in the test with Malme-3M was 18.9 µM (inactive); with NCI-H460, 19.7 µM (inactive).

As to `Cc1ccc(N2CN3OC(=O)N(c4ccccc4)[C@@]3(c3ccccc3)C2)cc1`, the GI50 in the test with SF-539 is 29.4 µM (inactive); in the test on UACC-257 it was 26.6 µM (inactive); in the test with CCRF-CEM, 34.4 µM (inactive); in the test on UACC-62 it was 21.2 µM (inactive); with SN12C, 42.2 µM (inactive); in the test with HOP-62 it was 36.1 µM (inactive). Moreover, the GI50 in the test with HOP-92 was 16.9 µM (inactive); in the test with MDA-N, 33.6 µM (inactive); in the test with SK-MEL-28 it was > 100 µM (inactive); in the test on COLO 205 it was 36.1 µM (inactive); with OVCAR-5, > 100 µM (inactive); in the test on PC-3, 34.2 µM (inactive). The GI50 in the test with A498 is 32.1 µM (inactive); in the test with RPMI-8226 it was 45.6 µM (inactive); with SNB-75 it was 36.6 µM (inactive); in the test on M14 it was 65.5 µM (inactive); in the test with MOLT-4, 35.1 µM (inactive); with HT-29, 25.1 µM (inactive). In addition, the GI50 with Malme-3M was 34 µM (inactive); with NCI-H460, 21.6 µM (inactive).

Regarding `COC(=O)CCc1cc(O)c2c(c1)C(C(=O)OC)C(c1ccc(O)c(O)c1)O2` (centres undefined), the GI50 with SF-539 was 9.64 µM (inactive); in the test with UACC-257, > 48.2 µM (inactive); with CCRF-CEM it was 3.21 µM (inactive); with UACC-62 it was 8.15 µM (inactive); in the test on SN12C, 21.9 µM (inactive); with HOP-62, 15.1 µM (inactive). Further, the GI50 is 44 µM (inactive) in the test with HOP-92; 1.9 µM (inactive) with MDA-N; 8.93 µM (inactive) in the test with SK-MEL-28; 31.4 µM (inactive) in the test on COLO 205; > 65.5 µM (inactive) in the test with OVCAR-5; 19.6 µM (inactive) with PC-3. The GI50 in the test on A498 was > 44.9 µM (inactive); with RPMI-8226, 22 µM (inactive); in the test on SNB-75, 2.35 µM (inactive); in the test on M14, 13.9 µM (inactive); with MOLT-4 it was 5.09 µM (inactive); in the test with HT-29 it was 27.2 µM (inactive). Besides, the results for the GI50 in the test on Malme-3M and with NCI-H460 were 6.97 µM (inactive) and 22.9 µM (inactive), respectively.

Turning to `CCCN(CCC)C(=S)N/N=C(/C)c1ccccc1O`, the GI50 in the test on SF-539 is 4.06 µM (inactive); in the test with UACC-257 it was 7.71 µM (inactive); in the test on CCRF-CEM, 2.96 µM (inactive); in the test with UACC-62, 3.19 µM (inactive); in the test with SN12C, 5.82 µM (inactive); in the test on HOP-62, 4.25 µM (inactive). Moreover, the GI50 was 15.9 µM (inactive) with HOP-92; 9.77 µM (inactive) with MDA-N; 7.28 µM (inactive) in the test on SK-MEL-28; 6.46 µM (inactive) in the test with COLO 205; 10.3 µM (inactive) in the test on OVCAR-5; 5.94 µM (inactive) with PC-3. The GI50 is 14.3 µM (inactive) with A498; 4.33 µM (inactive) with RPMI-8226; 5.56 µM (inactive) in the test on SNB-75; 2.94 µM (inactive) in the test on M14; 4.04 µM (inactive) in the test with MOLT-4; 6.28 µM (inactive) in the test with HT-29. Moreover, the GI50 was 3.2 µM (inactive) in the test with Malme-3M and 2.51 µM (inactive) with NCI-H460.

As to `COc1cccc(C2c3cc4c(cc3OC(NNS(=O)(=O)c3ccc(C)cc3)C2C)OCO4)c1OC` (centres undefined), the GI50 in the test on SF-539 is 2.97 µM (inactive); in the test with UACC-257 it was 2.7 µM (inactive); in the test on CCRF-CEM, 2.03 µM (inactive); in the test on UACC-62, 3.75 µM (inactive); with SN12C, 3.2 µM (inactive); in the test with HOP-62, 2.84 µM (inactive). Moreover, the GI50 is 2.15 µM (inactive) in the test on HOP-92; 3.37 µM (inactive) with MDA-N; 6.98 µM (inactive) with SK-MEL-28; 1.83 µM (inactive) with COLO 205; 4.82 µM (inactive) with OVCAR-5; 2.97 µM (inactive) in the test with PC-3. The GI50 in the test on A498 is 2.41 µM (inactive); in the test on RPMI-8226, 2.28 µM (inactive); in the test with SNB-75, 2.52 µM (inactive); with M14, 3.59 µM (inactive); in the test on MOLT-4 it was 2.74 µM (inactive); with HT-29 it was 3.18 µM (inactive). For the same compound, the values for the GI50 in the test with Malme-3M and in the test with NCI-H460 were 3.61 µM (inactive) and 2.67 µM (inactive), respectively.

In the case of `CC1=NN(C(=O)CC(=O)Nc2cccc(C)c2)C(=O)C1/N=N/c1ccc(S(=O)(=O)CCOS(=O)(=O)O)cc1` (centres undefined), the GI50 in the test with SF-539 is 2 µM (inactive); with UACC-257, 7.71 µM (inactive); in the test with CCRF-CEM, 0.422 µM (active); in the test on UACC-62 it was 1.81 µM (inactive); in the test with SN12C, 0.471 µM (active); in the test on HOP-62 it was 5.47 µM (inactive). In addition, the GI50 with HOP-92 was 2.25 µM (inactive); with MDA-N, 0.309 µM (active); with SK-MEL-28, 3.9 µM (inactive); with COLO 205 it was 2.45 µM (inactive); with OVCAR-5, 36.6 µM (inactive); in the test with PC-3 it was 0.359 µM (active). In addition, the GI50 is 11.5 µM (inactive) with A498; 1.86 µM (inactive) in the test with RPMI-8226; 0.805 µM (active) in the test on SNB-75; 0.484 µM (active) in the test with M14; 0.406 µM (active) in the test on MOLT-4; 0.767 µM (active) in the test with HT-29. In addition, the GI50 with Malme-3M is 0.839 µM (active); in the test on NCI-H460, 3.24 µM (inactive).

Consider `c1cc2c(ncc3cscc32)s1`, for which the GI50 in the test on SF-539 is > 100 µM (inactive); with UACC-257 it was > 100 µM (inactive); in the test with CCRF-CEM, > 100 µM (inactive); in the test with UACC-62 it was > 31.6 µM (inactive); in the test with SN12C, > 100 µM (inactive); in the test with HOP-62, > 100 µM (inactive). Besides, the GI50 in the test on HOP-92 was > 100 µM (inactive); with MDA-N, > 100 µM (inactive); with SK-MEL-28, > 100 µM (inactive); in the test with COLO 205 it was > 100 µM (inactive); in the test with OVCAR-5 it was > 89.5 µM (inactive); in the test on PC-3 it was > 100 µM (inactive). For the same compound, the GI50 is 51.1 µM (inactive) with A498; > 100 µM (inactive) with RPMI-8226; > 52.6 µM (inactive) in the test with SNB-75; > 100 µM (inactive) in the test with M14; > 100 µM (inactive) in the test with MOLT-4; > 100 µM (inactive) in the test on HT-29. In addition, the GI50 with Malme-3M and in the test with NCI-H460 was > 100 µM (inactive) each time.

As to `CCCC(=O)Oc1c2ccsc2c(OC(=O)CCC)c2ccsc12`, the GI50 with SF-539 is 0.982 µM (active); in the test with UACC-257, 0.92 µM (active); with CCRF-CEM, 1.54 µM (inactive); with UACC-62, 1.14 µM (inactive); in the test on SN12C it was 1.11 µM (active); in the test on HOP-62, 0.536 µM (active). Moreover, the GI50 with HOP-92 was 1.1 µM (active); in the test with MDA-N it was 0.371 µM (active); in the test on SK-MEL-28 it was 0.951 µM (active); with COLO 205, 10.9 µM (inactive); in the test with OVCAR-5 it was 2.76 µM (inactive); in the test on PC-3 it was 0.836 µM (active). Also, the GI50 was 4.6 µM (inactive) in the test with A498; 1.41 µM (inactive) in the test on RPMI-8226; 1.83 µM (inactive) in the test with SNB-75; 1.57 µM (inactive) in the test on M14; 1.96 µM (inactive) in the test with MOLT-4; 5.35 µM (inactive) in the test with HT-29. The GI50 in the test on Malme-3M was 0.359 µM (active); with NCI-H460 it was 1.05 µM (active).

Turning to `CCC(C)C1NC(=O)C(NC(=O)C(CC(C)C)N(C)C(=O)[C@@H]2CC(O)CN2C(=O)[C@H](C)O)C(C)OC(=O)[C@H](Cc2ccc(OC)cc2)N(C)C(=O)[C@@H]2CCCN2C(=O)[C@H](CC(C)C)NC(=O)C(C)C(=O)[C@H](C(C)C)OC(=O)CC1O` (some centres undefined), the GI50 was 0.0319 µM (active) with SF-539; 0.276 µM (active) with UACC-257; 0.191 µM (active) in the test on CCRF-CEM; 0.0542 µM (active) with UACC-62; 0.147 µM (active) with SN12C; 0.25 µM (active) in the test with HOP-62. The GI50 in the test on HOP-92 is 0.255 µM (active); with MDA-N, 0.133 µM (active); in the test with SK-MEL-28, 0.0462 µM (active); in the test with COLO 205 it was 0.117 µM (active); in the test on OVCAR-5, 0.265 µM (active); in the test with PC-3 it was 0.252 µM (active). Besides, the GI50 with A498 was 0.759 µM (active); in the test with RPMI-8226, 0.249 µM (active); in the test on SNB-75, 0.141 µM (active); with M14, 0.0935 µM (active); with MOLT-4 it was 0.102 µM (active); in the test with HT-29, 0.134 µM (active). The GI50 in the test with Malme-3M is 0.0664 µM (active); in the test with NCI-H460, 0.117 µM (active).

As for `CN(C)Cc1cc(C(=O)/C=C/c2ccc(F)cc2)cc(CN(C)C)c1O`, the GI50 with SF-539 is 21.1 µM (inactive); with UACC-257, 13.4 µM (inactive); in the test on CCRF-CEM, 17 µM (inactive); in the test with UACC-62, 3.14 µM (inactive); with SN12C it was 18.4 µM (inactive); in the test with HOP-62, 21.6 µM (inactive). Moreover, the GI50 in the test on HOP-92 is 29.2 µM (inactive); in the test on MDA-N, > 10 µM (inactive); in the test with SK-MEL-28, 29.2 µM (inactive); in the test on OVCAR-5, 57.7 µM (inactive); in the test with PC-3, 27.5 µM (inactive); in the test with A498, 24.5 µM (inactive). Moreover, the GI50 is 22.5 µM (inactive) with RPMI-8226; 22.9 µM (inactive) in the test on SNB-75; 12.4 µM (inactive) in the test on M14; 19.5 µM (inactive) in the test on MOLT-4; 23 µM (inactive) in the test with HT-29; 17.7 µM (inactive) with Malme-3M. Also, in the test with NCI-H460, the GI50 was 10.5 µM (inactive).
